Legend:
Format in all cases: in vivo
[1] = system: Monocotyledonous and dicotyledonous weed; assay: Post-emergence test experiment, weed control effect (Table 2); set-up: key to weed control effect, Setaria viridis (level) / weed control effect, Rorippa indica (level) / weed control effect, Abutilon theophrasti (level) / weed control effect, Echinochloa crus-galli (level) / weed control effect, Digitaria sanguinalis (level): Level 10: completely dead; Level 9: above 90% growth inhibition rate; Level 8: above 80% growth inhibition rate; Level 7: above 70% growth inhibition rate; Level 6: above 60% growth inhibition rate; Level 5: above 50% growth inhibition rate; Level 4: above 30% growth inhibition rate; Level 3: above 20% growth inhibition rate; Level 2: above 10% growth inhibition rate; Level 1: above 1-10% growth inhibition rate; Level 0: no effect; conditions: 3 weeks after spraying, greenhouse
Method in brief: (§1)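 Weed and crop seeds (wheat, corn, rice, soybean, cotton, oilseed, millet, sorghum) grown in soil in greenhouse; sprayed at 2-3 leaf stage, 2-3 weeks after sowing, with compound in acetone/Tween 80/water. Effects assessed after 3 weeks further greenhouse culture.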

[2] = system: main crop (wheat, corn, rice, soybean, cotton, oilseed, millet and sorghum); assay: Post-emergence test experiment, main crops (Table 2); set-up: key: Level 10: completely dead; Level 9: above 90% growth inhibition rate; Level 8: above 80% growth inhibition rate; Level 7: above 70% growth inhibition rate; Level 6: above 60% growth inhibition rate; Level 5: above 50% growth inhibition rate; Level 4: above 30% growth inhibition rate; Level 3: above 20% growth inhibition rate; Level 2: above 10% growth inhibition rate; Level 1: above 1-10% growth inhibition rate; Level 0: no effect; conditions: 3 weeks after spraying, greenhouse
Method in brief: as §1

Digitaria sanguinalis = assay: Control experiment, test in post-emergence stage; set-up: key: Level 10: completely dead; Level 9: above 90% growth inhibition rate; Level 8: above 80% growth inhibition rate; Level 7: above 70% growth inhibition rate; Level 6: above 60% growth inhibition rate; Level 5: above 50% growth inhibition rate; Level 4: above 30% growth inhibition rate; Level 3: above 20% growth inhibition rate; Level 2: above 10% growth inhibition rate; Level 1: above 1-10% growth inhibition rate; Level 0: no effect; conditions: 5-6 leaf stage, 15 g/ha, observe time 25 day
Experimental: (§2) Test in post-emergence stage: seeds of monocotyledonous weeds and corn were put into a plastic pot loaded with soil, covered with 0.5-2 cm soil, and allowed to grow in good greenhouse environment. The test plants were treated at 5-6 leaf stage 4 weeks after sowing. The test compounds of the present invention were dissolved with acetone respectively, then added with tween 80, diluted by a certain amount of water to reach a certain concentration. The solution was sprayed to the plants by a spray tower. The test application rate was 15 g/ha and the observe time was 25 day.

Echinochloa crus-galli [3] = assay: Control experiment, test in post-emergence stage; set-up: key: Level 10: completely dead; Level 9: above 90% growth inhibition rate; Level 8: above 80% growth inhibition rate; Level 7: above 70% growth inhibition rate; Level 6: above 60% growth inhibition rate; Level 5: above 50% growth inhibition rate; Level 4: above 30% growth inhibition rate; Level 3: above 20% growth inhibition rate; Level 2: above 10% growth inhibition rate; Level 1: above 1-10% growth inhibition rate; Level 0: no effect; conditions: 5-6 leaf stage, 15 g/ha, observe time 25 day
Experimental: as §2

Setaria viridis = assay: Control experiment, test in post-emergence stage; set-up: key: Level 10: completely dead; Level 9: above 90% growth inhibition rate; Level 8: above 80% growth inhibition rate; Level 7: above 70% growth inhibition rate; Level 6: above 60% growth inhibition rate; Level 5: above 50% growth inhibition rate; Level 4: above 30% growth inhibition rate; Level 3: above 20% growth inhibition rate; Level 2: above 10% growth inhibition rate; Level 1: above 1-10% growth inhibition rate; Level 0: no effect; conditions: 5-6 leaf stage, 15 g/ha, observe time 25 day
Experimental: as §2

Corn = assay: Control experiment, test in post-emergence stage, crop safety; set-up: key: Level 10: completely dead; Level 9: above 90% growth inhibition rate; Level 8: above 80% growth inhibition rate; Level 7: above 70% growth inhibition rate; Level 6: above 60% growth inhibition rate; Level 5: above 50% growth inhibition rate; Level 4: above 30% growth inhibition rate; Level 3: above 20% growth inhibition rate; Level 2: above 10% growth inhibition rate; Level 1: above 1-10% growth inhibition rate; Level 0: no effect; conditions: 5-6 leaf stage, 15 g/ha, observe time 25 day
Experimental: as §2

[4] = system: Echinochloa crus-galli, Scirpus juncoides and Monochoria vaginalis; assay: Resistance tests on the collected weed seeds; conditions: common rate; seeds collected from Heilongjing and Jiangsu Province of China
Excerpt: (§3) The seeds of Echinochloa crus-galli, Scirpus juncoides and Monochoria vaginalis were collected from Heilongjing and Jiangsu Province of China.

Echinochloa crus-galli [5] = assay: Weed control effect evaluation in transplanted rice field; set-up: key: Level 10: completely dead; Level 9: above 90% growth inhibition rate; Level 8: above 80% growth inhibition rate; Level 7: above 70% growth inhibition rate; Level 6: above 60% growth inhibition rate; Level 5: above 50% growth inhibition rate; Level 4: above 30% growth inhibition rate; Level 3: above 20% growth inhibition rate; Level 2: above 10% growth inhibition rate; Level 1: above 1-10% growth inhibition rate; Level 0: no effect; conditions: transplanted rice field pot test, application rate 60 g/ha, 14 days after treatment
Experimental: (§4) Rice field soil was loaded into a 1/1,000,000 ha pot. The seeds of Echinochloa, Scirpus juncoides, Bidens tripartite and Sagittaria trifolia were sowed and gently covered with soil, then left to stand still in greenhouse in the state of 0.5-1 cm of water storage. The tuber of Sagittaria trifolia was planted in the next day or 2 days later. It was kept at 3-4 cm of water storage thereafter. The weeds were treated by dripping the WP or SC water diluents prepared according to the common preparation method of the compounds of the present invention with pipette homogeneously to achieve specified effective amount when Echinochloa, Scirpus juncoides and Bidens tripartite reached 0.5 leaf stage and Sagittaria trifolia reached the time point of primary leaf stage.
(§5) The fertility condition of Echinochloa, Scirpus juncoides, Bidens tripartite and Sagittaria trifolia 14 days after the treatment of the compound of the invention and the fertility condition of rice 21 days after the treatment of the compound of the invention respectively with the naked eye.
as §3

Monochoria vaginalis = assay: as above; set-up: key: Level 10: completely dead; Level 9: above 90% growth inhibition rate; Level 8: above 80% growth inhibition rate; Level 7: above 70% growth inhibition rate; Level 6: above 60% growth inhibition rate; Level 5: above 50% growth inhibition rate; Level 4: above 30% growth inhibition rate; Level 3: above 20% growth inhibition rate; Level 2: above 10% growth inhibition rate; Level 1: above 1-10% growth inhibition rate; Level 0: no effect; conditions: transplanted rice field pot test, application rate 60 g/ha, 14 days after treatment
Experimental: as §4, §5, §3

Scirpus juncoides = assay: as above; set-up: key: Level 10: completely dead; Level 9: above 90% growth inhibition rate; Level 8: above 80% growth inhibition rate; Level 7: above 70% growth inhibition rate; Level 6: above 60% growth inhibition rate; Level 5: above 50% growth inhibition rate; Level 4: above 30% growth inhibition rate; Level 3: above 20% growth inhibition rate; Level 2: above 10% growth inhibition rate; Level 1: above 1-10% growth inhibition rate; Level 0: no effect; conditions: transplanted rice field pot test, application rate 60 g/ha, 14 days after treatment
Experimental: as §4, §5, §3

Rice = assay: Transplanted rice safety evaluation; set-up: key: Level 10: completely dead; Level 9: above 90% growth inhibition rate; Level 8: above 80% growth inhibition rate; Level 7: above 70% growth inhibition rate; Level 6: above 60% growth inhibition rate; Level 5: above 50% growth inhibition rate; Level 4: above 30% growth inhibition rate; Level 3: above 20% growth inhibition rate; Level 2: above 10% growth inhibition rate; Level 1: above 1-10% growth inhibition rate; Level 0: no effect; conditions: transplanted 3 leaf stage japonica rice, application rate 60 g/ha, 21 days after treatment
Experimental: In addition, the rice field soil that loaded into the 1/1,000,000 ha pot was leveled to keep water storage at 3-4 cm depth. The 3 leaf stage rice (japonica rice) was transplanted at 3 cm of transplanting depth the next day. The compound of the present invention was treated by the same way after 5 days of transplantation. The fertility condition of Echinochloa, Scirpus juncoides, Bidens tripartite and Sagittaria trifolia 14 days after the treatment of the compound of the invention and the fertility condition of rice 21 days after the treatment of the compound of the invention respectively with the naked eye.

| Compound | Digitaria sanguinalis (activity level) (Digitaria sanguinalis) | Echinochloa crus-galli (activity level) (Echinochloa crus-galli [3]) | Setaria viridis (activity level) (Setaria viridis) | Corn (safety, activity level) (Corn) | weed control effect, Abutilon theophrasti (level) ([1]; 30 g/ha) | weed control effect, Bidens pilosa (level) ([1]; 30 g/ha) | weed control effect, Digitaria sanguinalis (level) ([1]; 30 g/ha) | weed control effect, Echinochloa crus-galli (level) ([1]; 30 g/ha) | weed control effect, Rorippa indica (level) ([1]; 30 g/ha) | weed control effect, Setaria viridis (level) ([1]; 30 g/ha) | effect on crop, corn (level) ([2]; 30 g/ha) | effect on crop, rice (level) ([2]; 30 g/ha) | effect on crop, wheat (level) ([2]; 30 g/ha) | other results |
| --- | --- | --- | --- | --- | --- | --- | --- | --- | --- | --- | --- | --- | --- | --- |
| Cc1nn(C)cc1C(=O)Oc1c(C(=O)c2ccc(S(C)(=O)=O)c(COCC(F)(F)F)c2Cl)c(C)nn1C [Compound 29] | 10 | 8 (Level 8: above 80% growth inhibition rate) | 9 (Level 9: above 90% growth inhibition rate) | 0 | – | – | – | – | – | – | – | – | – | weed control effect, Abutilon theophrasti (level) ([1]; 15 g/ha): 8 (Level 8: above 80% growth inhibition rate); weed control effect, Bidens pilosa (level) ([1]; 15 g/ha): 5 (Level 5: above 50% growth inhibition rate); weed control effect, Digitaria sanguinalis (level) ([1]; 15 g/ha): 9 (Level 9: above 90% growth inhibition rate); weed control effect, Echinochloa crus-galli (level) ([1]; 15 g/ha): 8 (Level 8: above 80% growth inhibition rate); weed control effect, Rorippa indica (level) ([1]; 15 g/ha): 4 (Level 4: above 30% growth inhibition rate); weed control effect, Setaria viridis (level) ([1]; 15 g/ha): 10; effect on crop, corn (level) ([2]; 15 g/ha): 0; effect on crop, rice (level) ([2]; 15 g/ha): 3 (Level 3: above 20% growth inhibition rate); effect on crop, wheat (level) ([2]; 15 g/ha): 0 |
| Cc1nn(C)c(O)c1C(=O)c1ccc(S(C)(=O)=O)c(COCC(F)(F)F)c1Cl [B, reference compound] | 5 (Level 5: above 50% growth inhibition rate) | 6 (Level 6: above 60% growth inhibition rate) | 7 (Level 7: above 70% growth inhibition rate) | 0 | – | – | – | – | – | – | – | – | – | – |
| COCc1c(S(C)(=O)=O)ccc(C(=O)c2c(C)nn(C)c2OC(=O)c2cn(C)nc2C)c1Cl [Compound 26] | 10 | 10 | 10 | 0 | 7 (Level 7: above 70% growth inhibition rate) | 8 (Level 8: above 80% growth inhibition rate) | 10 | 10 | 8 (Level 8: above 80% growth inhibition rate) | 10 | 1 (Level 1: above 1-10% growth inhibition rate) | 5 (Level 5: above 50% growth inhibition rate) | 0 | – |
| CCOC(=O)c1cnn(C)c1S(=O)(=O)NC(=O)Nc1nc(OC)cc(OC)n1 [pyrazosulfuron-ethyl] | – | – | – | – | – | – | – | – | – | – | – | – | – | Resistance of the weeds to the herbicide [4]: resistant |
| COCc1c(S(C)(=O)=O)ccc(C(=O)c2c(C)nn(C)c2O)c1Cl [A, reference compound] | 6 (Level 6: above 60% growth inhibition rate) | 7 (Level 7: above 70% growth inhibition rate) | 7 (Level 7: above 70% growth inhibition rate) | 1 (Level 1: above 1-10% growth inhibition rate) | – | – | – | – | – | – | – | – | – | – |
| C#CCOCc1c(S(C)(=O)=O)ccc(C(=O)c2c(C)nn(C)c2OC(=O)c2cn(C)nc2C)c1C [Compound 76] | – | – | – | – | 7 (Level 7: above 70% growth inhibition rate) | 7 (Level 7: above 70% growth inhibition rate) | 7 (Level 7: above 70% growth inhibition rate) | 10 | 10 | 10 | 1 (Level 1: above 1-10% growth inhibition rate) | 3 (Level 3: above 20% growth inhibition rate) | 0 | Weed control effect, Echinochloa crus-galli (activity level) (Echinochloa crus-galli [5]): 10; Weed control effect, Monochoria vaginalis (activity level) (Monochoria vaginalis): 10; Weed control effect, Scirpus juncoides (activity level) (Scirpus juncoides): 10; Rice (safety, activity level) (Rice): 0 |
